Laboratory results reported in patent publication US10993957B2 (NuCana plc, priority 2011, dated 2021).
Entries after “also recorded” stand apart in the source; their conditions may differ. Like-named read-outs stand apart in the source and are kept apart here.

Key:
[1] = system: U87.Hyor; experiment: Cytostatic assay, Mycoplasma hyorhinis-infected U87 cells; type: cell-based, human; conditions: for IC50: Homo sapiens, U-87 MG, read-out: IC50 U87.Hyor
Experimental: All cells were maintained in Dulbecco's modified Eagle's medium (DMEM) (Invitrogen, Carlsbad, Calif.) with 10% foetal bovine serum (FBS) (Biochrom AG, Berlin, Germany), 10 mM Hepes and 1 mM Sodium Pyruvate (Invitrogen). Cells were grown at 37° C. in a humidified incubator with a gas phase of 5% CO2.
Monolayer cells (U87 and U87.Hyor) were seeded in 48-well microtiter plates (Nunc™, Roskilde, Denmark) at 10,000 cells/well. After 24 hours, an equal volume of fresh medium containing the test compounds was added. On day 5, cells were trypsinized and counted in a Coulter counter (Analis, Suarlée, Belgium). Suspension cells (L1210/0, L1210/TK^−, L1210.Hyor, CEM/0, CEM/TK^−) were seeded in 96-well microtiter plates (Nunc™) at 60,000 cells/well in the presence of a given amount of the test compounds. The cells were allowed to proliferate for 48 h (L1210) or 72 hours (CEM) and were then counted in a Coulter counter.

[2] = target: T1, thymidylate synthase (TS) (Mus musculus, UniProt P07607); experiment: TS activity in intact L1210/0 cells (tritium release); type: cell-based, murine; conditions: for increase of inhibition of 3H release upon longer preincubation times: up to 4 hr versus 30 min
Experimental: (§1) The activity of TS in intact L1210/0 and L1210/TK^− cells was measured by evaluation of tritium release from [5-^3H]dUMP (formed in the cells from [5-^3H]dUrd or [5-^3H]dCyd) in the reaction catalysed by TS. This method has been described in detail by Balzarini & De Clercq (1984). […] After 30 min, 2 h and 4 h preincubation of the cells with the compounds at 37° C., 1 μCi of [5-^3H]dUrd or [5-^3H]dCyd was added to the cell cultures. After 30 min incubation, 100 μL of the cell suspensions were withdrawn and added to a cold suspension of 500 μL activated charcoal (VWR, Haasrode, Belgium) (100 mg/ml in TCA 5%). After 10 min, the suspension was centrifuged at 13,000 rpm for 10 min, after which the radioactivity in 400 μL supernatant was counted in a liquid sinctillator using OptiPhase HiSafe (Perkin Elmer, Waldham, Mass.).
The activity of TS in intact tumour cells can be directly monitored by measuring the tritium release in intact L1210/0 cell cultures that were exposed to [5-^3H]deoxyuridine ([5-^3H]dUrd) or [5-^3H]deoxycytidine ([5-^3H]dCyd). Indeed, after intracellular conversion of [5-^3H]dUrd or [5-^3H]dCyd to [5-^3H]dUMP, the C-5 tritium atom on the pyrimidine base is released during the TS-catalysed reductive methylation.

[3] = target: Thymidine Phosphorylase purified from Escherichia coli (Escherichia coli, UniProt P07650); experiment: Phosphorylase assay by in situ 19F NMR
Experimental: Two potassium phosphate buffers at pH=7.4, 200 nM solution and 300 nM solution respectively, were used as phosphate donor. Units of enzyme were defined as the amount of enzyme required to hydrolyse about 0.25 mg of inosine per min used as standard. Assays were conducted for 30 minutes.

[4] = system: Cem/0; experiment: Cytostatic assay, CEM/0 cells; type: cell-based, human; conditions: Homo sapiens, CCRF-CEM; for CC50: Table 1, read-out: CC50 Cem/0
Source text: The cell lines employed were L1210/0 (a leukemia cell line), FM3A/0 (a breast cancer cell line), Cem/0 (an acute lymphoblastic leukemia cell line) and HeLa (a cervical cell line).

[5] = system: Cem/hEnt-0; experiment: Cytostatic assay, CEM cells lacking the hEnt1 transporter; type: cell-based; conditions: Homo sapiens, CCRF-CEM, read-out: IC50 Cem/hEnt-0
Source text: Data are mean (±SD) of at least two to four independent experiments. Table 8 identifies the phosphoramidate motif of compounds embodying the present invention, as discussed above with respect to Table 6, but with “Naph” standing for 1-naphthyl.

[6] = target: E. coli TP (Escherichia coli, UniProt P07650); experiment: Phosphorolysis by E. coli TP, HPLC; conditions: 100 μM compound, room temperature, 0-40 min
Experimental: Reaction mixtures containing 100 μM test compound and recombinant TP or UP (human TP: 8.6 ng/μL; E. coli TP: 3.0 ng/μL; human UP: 4 ng/mL) in a total volume of 500 μL reaction buffer (10 mM TrisHCl; 300 μM NaCl; 1 mM EDTA; 2 mM KH2PO4/K2HPO4) were incubated at room temperature. At different time points (i.e. 0, 20, 40 min) 100 μL aliquots of the reaction mixtures were withdrawn and heated at 95° C. for 3 min to inactivate the enzyme. The resulting reaction products were separated on a reverse-phase RP-8 column (Merck, Darmstadt, Germany) and quantified by HPLC analysis (Alliance 2690, Waters, Milford, Mass.). […] UV-based detection was performed at 267 nm. The separation of Urd from uracil was performed by a linear gradient from 100% separation buffer (see above) to 60% separation buffer+40% acetonitrile (3 min 100% separation buffer; 6 min linear gradient of 100% separation buffer to 60% separation buffer+40% acetonitrile; 6 min 60% separation buffer+40% acetonitrile, followed by equilibration at 100% separation buffer). UV-based detection was performed at 258 nm.

[7] = system: FM3A/0; experiment: Cytostatic assay, FM3A/0 cells; type: cell-based; conditions: Mus musculus, FM3A/0; Table 1; read-out: CC50 FM3A/0
Experimental: The samples were assayed for biological activity versus a range of tumour cell lines with data recorded in Table 1 below. […] The cell lines employed were L1210/0 (a leukemia cell line), FM3A/0 (a breast cancer cell line), Cem/0 (an acute lymphoblastic leukemia cell line) and HeLa (a cervical cell line).

[8] = target: T1, thymidylate synthase (TS); experiment: TS activity in intact L1210/TK^− cells (tritium release); type: cell-based, murine; conditions: tritium release from [5-3H]dCyd, 4 hours preincubation; read-out: IC50 against TS, L1210/TK^−
Experimental: as §1

[9] = system: FM3A/TK^−; experiment: Cytostatic assay, FM3A/TK^− cells; type: cell-based; conditions: Mus musculus, Table 1, read-out: CC50 FM3A/TK^−
[10] = system: L1210.Hyor; experiment: Cytostatic assay, Mycoplasma hyorhinis-infected L1210 cells; conditions: for % Retention: CC50 L1210 × 100 ÷ CC50 L1210/Hyor; for CC50 / IC50: Mus musculus; for CC50: L1210, read-out: CC50 L1210/Hyor
Outline: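 Proliferation read by Coulter counting after 48 h exposure of compound-treated L1210 cells carrying M. hyorhinis infection (60,000 cells/well, DMEM with 10% FBS, 37 °C). Values also given as percent activity retained in infected cells.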

[11] = L1210/0, 30 min preincubation, both substrates, read-out: IC50 for tritium release from [5-3H]dCyd and [5-3H]dUrd
[12] = intact L1210/0 cells, 30 min exposure, read-out: IC50 Tritium release from dCyd*
[13] = intact L1210/0 cells, 30 min exposure, read-out: IC50 Tritium release from dUrd*
[14] = tritium release from [5-3H]dCyd, 4 hours preincubation, read-out: IC50 against TS, L1210/0

Sequence of Thymidine Phosphorylase purified from Escherichia coli (P07650 whole entry): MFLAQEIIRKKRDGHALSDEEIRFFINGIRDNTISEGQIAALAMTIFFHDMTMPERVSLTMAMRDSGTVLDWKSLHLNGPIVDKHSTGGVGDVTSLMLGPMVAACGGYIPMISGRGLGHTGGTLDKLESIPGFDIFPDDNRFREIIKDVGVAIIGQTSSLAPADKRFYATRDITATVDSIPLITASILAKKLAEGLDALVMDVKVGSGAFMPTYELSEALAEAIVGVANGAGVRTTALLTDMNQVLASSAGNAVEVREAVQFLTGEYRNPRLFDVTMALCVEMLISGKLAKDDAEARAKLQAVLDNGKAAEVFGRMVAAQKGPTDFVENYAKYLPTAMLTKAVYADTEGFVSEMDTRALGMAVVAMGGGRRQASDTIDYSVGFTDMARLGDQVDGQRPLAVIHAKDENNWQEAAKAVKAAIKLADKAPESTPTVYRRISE
T1 sequence (P07607 whole entry): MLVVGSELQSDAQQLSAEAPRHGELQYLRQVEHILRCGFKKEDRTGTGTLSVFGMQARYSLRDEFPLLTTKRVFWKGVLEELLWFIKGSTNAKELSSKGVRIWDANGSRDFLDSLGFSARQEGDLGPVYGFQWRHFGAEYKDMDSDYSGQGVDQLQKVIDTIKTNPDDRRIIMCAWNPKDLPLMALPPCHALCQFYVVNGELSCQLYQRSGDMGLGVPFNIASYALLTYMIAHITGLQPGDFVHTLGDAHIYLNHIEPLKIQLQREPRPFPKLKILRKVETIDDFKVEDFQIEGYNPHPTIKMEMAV
Sequence of E. coli TP (P07650 whole entry): as the sequence (P07650 whole entry) above

Row | Compound | IC50 [2, 11] [nM] | IC50 [2, 12] [nM] | IC50 [2, 13] [nM] | IC50 [2, 14] [nM] | increase of inhibition of 3H release upon longer preincubation times [2] [fold] | CC50 [4] [nM] | IC50 ([4]; Table 3, read-out: IC50 CEM/0) [nM] | IC50 ([4]; Table 6, read-out: IC50 Cem/0) [nM] | IC50 [5] [nM] | Phosphorolysis by E. coli TP [6] | CC50 [7] [nM] | IC50 [8] [nM] | CC50 [9] [nM] | % Retention [10] [%] | CC50 [10] [nM] | also measured
1 | C[C@H](NP(=O)(OC[C@H]1O[C@@H](n2cc(F)c(=O)[nH]c2=O)CC1O)Oc1cccc2ccccc12)C(=O)OCc1ccccc1 (stereo partly drawn) [CPF 373, 5-Fluoro-2′deoxyuridine-5′-O-[1-naphthyl (benzoxy-L-alaninyl)] phosphate] | 160 to 190 | 190 ± 80 | 160 ± 50 | 13 | 10 | 89 ± 43 | 89 | 68 ± 35 | 600 ± 110 | fully stable | 59 ± 46 | 53 | 740 ± 180 | 44 | 25 | IC50 [1]: 39 nM; inhibitory activity on tritium release less pronounced than that of 5-FdUrd ([2]; 30 min preincubation): ~200 fold; Stability in the presence of TP (19F NMR) ([3]; with and without TP, repeated after days): completely stable; also recorded: evident stability against TP enzymatic activity; IC50 ([10]; L1210, read-out: IC50 L1210.Hyor): 25 nM; IC50(L1210.Hyor)/IC50(L1210/0) ([10]; Table 7): 2.27
2 | O=c1[nH]c(=O)n([C@H]2C[C@H](O)[C@@H](CO)O2)cc1F [5-FdUrd, 5-fluoro-2′-deoxyuridine, reference compound] | 0.7 to 0.9 | 0.7 | 0.9 ± 0.2 | 0.3 | 2 | 28 ± 2 | 28 | 22 ± 6 | 2500 ± 650 | rapidly converted | 6.5 ± 5.5 | 1420 ± 90 | 700 ± 20 | 0.2 | 278 | loss of cytostatic activity in U87.Hyor versus uninfected U87 cells [1]: 400 fold; IC50 ([1]; Table 3): 3000 ± 550 nM; Conversion of substrate into the base 5-FU ([3]; potassium phosphate buffer increased to 205 nM): fully converted; Conversion of nucleoside into the free base 5FU ([3]; potassium phosphate buffer, pH 7.4, TP 20.7 UNI, 25° C.): 66%; IC50 ([10]; L1210, read-out: IC50 L1210.Hyor, Table 3): 240 nM; loss of cytostatic activity against L1210.Hyor cells ([10]; versus L1210/0): 300 fold
